Molecular target: unphosphorylated-BTK kinase domain (UP-BTK), GST-tagged human BTK (389-659aa) (Homo sapiens (Human), UniProt Q06187)
Test: BTK Kinase Lanthascreen Binding Assay
Conditions: Lanthascreen binding, 60 minutes incubation; pIC50 = negative log of the IC50 in molar
Protocol: BTK Kinase Lanthascreen Binding Assay:
A BTK kinase lanthascreen binding assay monitors compound binding to unphosphorylated-BTK kinase domain (UP-BTK), by competing with a fluorescent labeled tracer. […] Data were analyzed using Xlfit™ version 5.3 from ID Business Solutions (Guildford), Microsoft Excel add-in. pIC50 refers to the negative log of the IC50 in molar.

Sequence of unphosphorylated-BTK kinase domain (UP-BTK), GST-tagged human BTK (389-659aa) (Q06187 389-659): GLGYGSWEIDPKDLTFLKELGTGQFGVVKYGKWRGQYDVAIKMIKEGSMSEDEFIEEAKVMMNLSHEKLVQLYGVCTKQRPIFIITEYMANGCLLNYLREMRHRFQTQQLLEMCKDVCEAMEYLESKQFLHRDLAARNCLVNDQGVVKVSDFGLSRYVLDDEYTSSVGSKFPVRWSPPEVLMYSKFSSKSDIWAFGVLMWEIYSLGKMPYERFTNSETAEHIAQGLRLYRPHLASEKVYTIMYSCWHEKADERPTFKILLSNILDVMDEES

Row | BTK_I_binding pIC50 | Compound
1 | 7.97 | C=CC(=O)N[C@@H]1CCC[C@H]1NC(=O)c1sc2nccc3c2c1NC(=O)N3c1ccc(Oc2ccccc2)nc1C (single isomer, unassigned) [Example 301, N-((1R,2R)-2-Acrylamidocyclopentyl)-5-(*S)-(2-methyl-6-phenoxypyridin-3-yl)-4-oxo-4,5-dihydro-3H-1-thia-3,5,8-triazaacenaphthylene-2-carboxamide]

Same assay, conditions: compound, 50 nM Tracer 236, 2 nM anti-GST antibody, 60 minutes; pIC50 = negative log of the IC50 in molar

Row | Compound | BTK_I_binding pIC50
2 | Cc1cc(Oc2ccccc2)ccc1N1C(=O)Nc2c(C(=O)N[C@@H]3CC[C@H](N)C3)sc3nccc1c23 (single isomer, unassigned) [Example 240, N-((1R,3S)-3-Aminocyclopentyl)-5-(*S)-(2-methyl-4-phenoxyphenyl)-4-oxo-4,5-dihydro-3H-1-thia-3,5,8-triazaacenaphthylene-2-carboxamide] | 6.72
3 | CC(=O)N[C@H]1CC[C@H](NC(=O)c2sc3nccc4c3c2NC(=O)N4c2ccc(Oc3ccccc3)cc2C)C1 (single isomer, unassigned) [Example 241, N-((1S,3S)-3-Acetamidocyclopentyl)-5-(*S)-(2-methyl-4-phenoxyphenyl)-4-oxo-4,5-dihydro-3H-1-thia-3,5,8-triazaacenaphthylene-2-carboxamide] | 7.26
4 | C=CC(=O)N[C@H]1CCCC[C@H]1NC(=O)c1sc2nccc3c2c1NC(=O)N3c1ccc(OC2CCC2)nc1C (single isomer, unassigned) [Example 242, N-((1R,2S)-2-Acrylamidocyclohexyl)-5-(*R)-(6-cyclobutoxy-2-methylpyridin-3-yl)-4-oxo-4,5-dihydro-3H-1-thia-3,5,8-triazaacenaphthylene-2-carboxamide] | 7.04
5 | CC(=O)N[C@H]1CCC[C@H](NC(=O)c2sc3nccc4c3c2NC(=O)N4c2ccc(Oc3ccccc3)cc2C)C1 (single isomer, unassigned) [Example 243, N-((1S,3S)-3-Acetamidocyclohexyl)-5-(*S)-(2-methyl-4-phenoxyphenyl)-4-oxo-4,5-dihydro-3H-1-thia-3,5,8-triazaacenaphthylene-2-carboxamide] | 6.85
6 | CC(=O)N[C@H]1CC[C@@H](NC(=O)c2sc3nccc4c3c2NC(=O)N4c2ccc(Oc3ccccc3)cc2C)C1 (single isomer, unassigned) [Example 244, N-((1R,3S)-3-Acetamidocyclopentyl)-5-(*S)-(2-methyl-4-phenoxyphenyl)-4-oxo-4,5-dihydro-3H-1-thia-3,5,8-triazaacenaphthylene-2-carboxamide] | 6.66
7 | Cc1cc(Oc2ccccc2)ccc1N1C(=O)Nc2c(C(=O)N[C@H]3CCC[C@H](N)C3)sc3nccc1c23 (single isomer, unassigned) [Example 247, N-((1S,3S)-3-Aminocyclohexyl)-5-(*S)-(2-methyl-4-phenoxyphenyl)-4-oxo-4,5-dihydro-3H-1-thia-3,5,8-triazaacenaphthylene-2-carboxamide] | 6.66
8 | Cc1cc(Oc2ccccc2)ccc1N1C(=O)Nc2c(C(=O)N[C@H]3CCC[C@H](NC(=O)CN)C3)sc3nccc1c23 (single isomer, unassigned) [Example 251, N-((1R,3S)-3-(2-Aminoacetamido)cyclohexyl)-5-(*S)-(2-methyl-4-phenoxyphenyl)-4-oxo-4,5-dihydro-3H-1-thia-3,5,8-triazaacenaphthylene-2-carboxamide] | 6.71
9 | Cc1cc(Oc2ccccc2)ccc1N1C(=O)Nc2c(C(=O)N[C@H]3CCC[C@H](NC(=O)CN(C)C)C3)sc3nccc1c23 (single isomer, unassigned) [Example 252, N-((1R,3S)-3-(2-(Dimethylamino)acetamido)cyclohexyl)-5-(*S)-(2-methyl-4-phenoxyphenyl)-4-oxo-4,5-dihydro-3H-1-thia-3,5,8-triazaacenaphthylene-2-carboxamide] | 6.63
10 | CC(=O)N[C@H]1CCC[C@H](NC(=O)c2sc3nccc4c3c2NC(=O)N4c2ccc(Oc3ccccc3)cc2C)C1 (single isomer, unassigned) [Example 253, N-((1R,3S)-3-Acetamidocyclohexyl)-5-(*S)-(2-methyl-4-phenoxyphenyl)-4-oxo-4,5-dihydro-3H-1-thia-3,5,8-triazaacenaphthylene-2-carboxamide] | 6.63
11 | Cc1nc(Oc2ccccc2)ncc1N1C(=O)Nc2c(C(=O)N[C@@H]3CCC[C@@H]3N)sc3nccc1c23 (single isomer, unassigned) [Example 254, N-((1R,2S)-2-aminocyclopentyl)-5-(*)-(4-methyl-2-phenoxypyrimidin-5-yl)-4-oxo-4,5-dihydro-3H-1-thia-3,5,8-triazaacenaphthylene-2-carboxamide] | 6.55
12 | Cc1cc(Oc2ccccc2)ncc1N1C(=O)Nc2c(C(=O)N[C@@H]3CCCC[C@H]3N)sc3nccc1c23 (single isomer, unassigned) [Example 255, N-((1R,2R)-2-Aminocyclohexyl)-5-(*S)-(4-methyl-6-phenoxypyridin-3-yl)-4-oxo-4,5-dihydro-3H-1-thia-3,5,8-triazaacenaphthylene-2-carboxamide] | 6.51
13 | Cc1nc(Oc2ccccc2)ncc1N1C(=O)Nc2c(C(=O)N[C@@H]3CCC[C@H]3N)sc3nccc1c23 (single isomer, unassigned) [Example 256, N-((1R,2R)-2-Aminocyclopentyl)-5-(*S)-(4-methyl-2-phenoxypyrimidin-5-yl)-4-oxo-4,5-dihydro-3H-1-thia-3,5,8-triazaacenaphthylene-2-carboxamide] | 6.48
14 | C=CC(=O)N[C@H]1CCCC[C@H]1NC(=O)c1sc2nccc3c2c1NC(=O)N3c1cnc(OC2CCC2)cc1C (single isomer, unassigned) [Example 266, N-((1R,2S)-2-Acrylamidocyclohexyl)-5-(*R)-(6-cyclobutoxy-4-methylpyridin-3-yl)-4-oxo-4,5-dihydro-3H-1-thia-3,5,8-triazaacenaphthylene-2-carboxamide] | 6.21

Other lines, results leading:

Row | BTK_I_binding pIC50 | Compound
15 | 6.45 | Cc1cc(Oc2ccccc2)ccc1N1C(=O)Nc2c(C(=O)N[C@H]3CC[C@H](N)C3)sc3nccc1c23 (single isomer, unassigned) [Example 259, N-((1S,3S)-3-Aminocyclopentyl)-5-(*S)-(2-methyl-4-phenoxyphenyl)-4-oxo-4,5-dihydro-3H-1-thia-3,5,8-triazaacenaphthylene-2-carboxamide]
16 | 6.42 | Cc1cc(Oc2ccccc2)ccc1N1C(=O)Nc2c(C(=O)N[C@@H]3CCC[C@H](N)C3)sc3nccc1c23 (single isomer, unassigned) [Example 261, N-((1R,3S)-3-Aminocyclohexyl)-5-(*S)-(2-methyl-4-phenoxyphenyl)-4-oxo-4,5-dihydro-3H-1-thia-3,5,8-triazaacenaphthylene-2-carboxamide]
17 | 6.39 | Cc1cc(OC(C)C)ccc1N1C(=O)Nc2c(C(=O)N[C@@H]3CCC[C@@H]3N)sc3nccc1c23 (single isomer, unassigned) [Example 262, N-((1R,2S)-2-Aminocyclopentyl)-5-(*R)-(4-isopropoxy-2-methylphenyl)-4-oxo-4,5-dihydro-3H-1-thia-3,5,8-triazaacenaphthylene-2-carboxamide]
18 | 6.26 | C=CC(=O)N[C@@H]1CCCC[C@H]1NC(=O)c1sc2nccc3c2c1NC(=O)N3c1ccc(OC(C)C)cc1C (single isomer, unassigned) [Example 264, N-((1R,2R)-2-Acrylamidocyclohexyl)-5-(*R)-(4-isopropoxy-2-methylphenyl)-4-oxo-4,5-dihydro-3H-1-thia-3,5,8-triazaacenaphthylene-2-carboxamide]

Same assay, conditions: read-out: BTK_I_binding pIC50 (converted)

Row | Compound | IC50 [nM]
19 | C=CC(=O)N[C@H]1CCC[C@H](NC(=O)c2sc3nccc4c3c2NC(=O)N4c2ccc(OC(C)C)cc2C)C1 (single isomer, unassigned) [Example 274, N-((1S, S)-3-Acrylamidocyclohexyl)-5-(*R)-(4-isopropoxy-2-methylphenyl)-4-oxo-4,5-dihydro-3H-1-thia-3,5,8-triazaacenaphthylene-2-carboxamide] | > 1000
20 | C=CC(=O)N[C@H]1CCC[C@@H](NC(=O)c2sc3nccc4c3c2NC(=O)N4c2ccc(OC(C)C)cc2C)C1 (single isomer, unassigned) [Example 275, N-((1R,3S)-3-Acrylamidocyclohexyl)-5-(*R)-(4-isopropoxy-2-methylphenyl)-4-oxo-4,5-dihydro-3H-1-thia-3,5,8-triazaacenaphthylene-2-carboxamide] | > 1000

The remaining lines, values ahead:

Row | IC50 [nM] | Compound
21 | > 1000 | C=CC(=O)N[C@H]1CCCC[C@@H]1NC(=O)c1sc2nccc3c2c1NC(=O)N3c1ccc(OC(C)C)cc1C (single isomer, unassigned) [Example 272, N-((1S,2S)-2-Acrylamidocyclohexyl)-5-(*R)-(4-isopropoxy-2-methylphenyl)-4-oxo-4,5-dihydro-3H-1-thia-3,5,8-triazaacenaphthylene-2-carboxamide]
22 | > 1000 | C=CC(=O)N[C@@H]1CCCC[C@H]1NC(=O)c1sc2nccc3c2c1NC(=O)N3c1ccc(OC(C)C)cc1C (single isomer, unassigned) [Example 273, N-((1R,2R)-2-Acrylamidocyclohexyl)-5-(*S)-(4-isopropoxy-2-methylphenyl)-4-oxo-4,5-dihydro-3H-1-thia-3,5,8-triazaacenaphthylene-2-carboxamide]
23 | > 1000 | C=CC(=O)N[C@H]1CC[C@@H](NC(=O)c2sc3nccc4c3c2NC(=O)N4c2ccc(OC(C)C)cc2C)C1 (single isomer, unassigned) [Example 276, N-((1R,3S)-3-Acrylamidocyclopentyl)-5-(*R)-(4-isopropoxy-2-methylphenyl)-4-oxo-4,5-dihydro-3H-1-thia-3,5,8-triazaacenaphthylene-2-carboxamide]
